Patent publication US11976057B2, “MrgX2 antagonists” (GlaxoSmithKline Intellectual Property Development Limited, priority 2020, dated 2024)

target: T1, human MRGPRX2 (Homo sapiens, UniProt Q96LB1); assay: Ca2+ mobilization assay (FLIPR TETRA): inhibition of Cortistatin-14 mediated MRGPRX2 activation; details: not given
T1 sequence (Q96LB1 1-330): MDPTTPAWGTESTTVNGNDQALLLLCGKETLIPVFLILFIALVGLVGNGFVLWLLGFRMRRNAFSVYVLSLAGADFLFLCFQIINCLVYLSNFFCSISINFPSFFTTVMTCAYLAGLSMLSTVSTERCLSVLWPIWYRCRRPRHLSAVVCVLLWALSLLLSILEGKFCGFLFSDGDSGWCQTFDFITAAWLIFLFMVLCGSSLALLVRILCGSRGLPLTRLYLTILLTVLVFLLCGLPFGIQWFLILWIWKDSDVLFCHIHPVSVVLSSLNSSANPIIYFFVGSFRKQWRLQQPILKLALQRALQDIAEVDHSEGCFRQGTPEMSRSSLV

Row | IC50 [nM] | Compound
1 | 10 to 100 | C[C@@H](C(=O)Nc1ccc(Oc2ccc(F)cn2)cn1)N1CCC(F)(F)[C@@H](c2cc[n+]([O-])cc2)C1 [Example 115]
2 | 10 to 100 | C[C@@H](C(=O)Nc1ccc(Oc2ncc(F)cc2F)cn1)N1CCC(F)(F)[C@@H](c2cc[n+]([O-])cc2)C1 [Example 116]
3 | ≤ 10 | C[C@@H](C(=O)Nc1ccc(Oc2ccc(F)cc2F)cn1)N1CCC(F)(F)[C@@H](c2cc[n+]([O-])cc2)C1 [Example 117, 4-((S)-1-((S)-1-((5-(2,4-difluorophenoxy)pyridin-2-yl)amino)-1-oxopropan-2-yl)-4,4-difluoropiperidin-3-yl)pyridine 1-oxide]
4 | ≤ 10 | C[C@@H](C(=O)Nc1cnc(Oc2c(F)cc(F)cc2F)cn1)N1CCC(F)(F)[C@@H](c2cc[n+]([O-])cc2)C1 [Example 119, 4-((S)-4,4-difluoro-1-((S)-1-oxo-1-((5-(2,4,6-trifluorophenoxy)pyrazin-2-yl)amino)propan-2-yl)piperidin-3-yl)pyridine 1-oxide]
5 | ≤ 10 | C[C@@H](C(=O)Nc1cnc(Oc2cc(F)c(F)cc2F)cn1)N1CCC(F)(F)[C@@H](c2cc[n+]([O-])cc2)C1 [Example 120, 4-((S)-4,4-difluoro-1-((S)-1-oxo-1-((5-(2,4,5-trifluorophenoxy)pyrazin-2-yl)amino)propan-2-yl)piperidin-3-yl)pyridine 1-oxide]
6 | ≤ 10 | C[C@@H](C(=O)Nc1cnc(Oc2c(F)cccc2F)cn1)N1CCC(F)(F)[C@@H](c2cc[n+]([O-])cc2)C1 [Example 121, 4-((S)-1-((S)-1-((5-(2,6-difluorophenoxy)pyrazin-2-yl)amino)-1-oxopropan-2-yl)-4,4-difluoropiperidin-3-yl)pyridine 1-oxide]
7 | ≤ 10 | C[C@@H](C(=O)Nc1cnc(Oc2ccc(F)c(F)c2F)cn1)N1CCC(F)(F)[C@@H](c2cc[n+]([O-])cc2)C1 [Example 122, 4-((S)-4,4-difluoro-1-((S)-1-oxo-1-((5-(2,3,4-trifluorophenoxy)pyrazin-2-yl)amino)propan-2-yl)piperidin-3-yl)pyridine 1-oxide]
8 | ≤ 10 | C[C@@H](C(=O)Nc1ccc(Oc2c(F)cc(F)cc2F)cn1)N1CCC(F)(F)[C@@H](c2cc[n+]([O-])cc2)C1 [Example 123, 4-((S)-4,4-difluoro-1-((S)-1-oxo-1-((5-(2,4,6-trifluorophenoxy)pyridin-2-yl)amino)propan-2-yl)piperidin-3-yl)pyridine 1-oxide]
9 | ≤ 10 | C[C@@H](C(=O)Nc1ccc(Oc2cc(F)c(F)cc2F)cn1)N1CCC(F)(F)[C@@H](c2cc[n+]([O-])cc2)C1 [Example 124, 4-((S)-4,4-difluoro-1-((S)-1-oxo-1-((5-(2,4,5-trifluorophenoxy)pyridin-2-yl)amino)propan-2-yl)piperidin-3-yl)pyridine 1-oxide]
10 | 10 to 100 | C[C@@H](C(=O)Nc1ccc(Oc2ncccc2F)cn1)N1CCC(F)(F)[C@@H](c2cc[n+]([O-])cc2)C1 [Example 125, 4-((S)-4,4-difluoro-1-((S)-1-((5-((3-fluoropyridin-2-yl)oxy)pyridin-2-yl)amino)-1-oxopropan-2-yl)piperidin-3-yl)pyridine 1-oxide]
11 | 10 to 100 | C[C@@H](C(=O)Nc1ccc(Oc2ccccn2)cn1)N1CCC(F)(F)[C@@H](c2cc[n+]([O-])cc2)C1 [Example 126, 4-((S)-4,4-difluoro-1-((S)-1-oxo-1-((5-(pyridin-2-yloxy)pyridin-2-yl)amino)propan-2-yl)piperidin-3-yl)pyridine 1-oxide]
12 | 10 to 100 | C[C@@H](C(=O)Nc1ccc(C(F)(F)c2ccc(F)cc2)cn1)N1CCC(F)(F)[C@@H](c2cc[n+]([O-])cc2)C1 [Example 127, 4-((S)-1-((S)-1-((5-(difluoro(4-fluorophenyl)methyl)pyridin-2-yl)amino)-1-oxopropan-2-yl)-4,4-difluoropiperidin-3-yl)pyridine 1-oxide]
13 | 100 to 3160 | C[C@@H](C(=O)Nc1ccc(C(=O)c2ccc(F)cc2)cn1)N1CCC(F)(F)[C@@H](c2cc[n+]([O-])cc2)C1 [Example 128, 4-((S)-4,4-difluoro-1-((S)-1-((5-(4-fluorobenzoyl)pyridin-2-yl)amino)-1-oxopropan-2-yl)piperidin-3-yl)pyridine 1-oxide]
14 | 3160 to 31600 | CC(C(=O)Nc1ccc(C(O)c2ccc(F)cc2)cn1)N1CCC(F)(F)[C@@H](c2cc[n+]([O-])cc2)C1 (stereo partly drawn) [Example 129, 4-((3S)-4,4-difluoro-1-(1-((5-((4-fluorophenyl) (hydroxy)methyl)pyridin-2-yl)amino)-1-oxopropan-2-yl)piperidin-3-yl)pyridine 1-oxide]
15 | ≤ 10 | C[C@@H](C(=O)Nc1ccc(Oc2c(F)cccc2F)cn1)N1CCC(F)(F)[C@@H](c2cc[n+]([O-])cc2)C1 [Example 130, 4-((S)-1-((S)-1-((5-(2,6-difluorophenoxy)pyridin-2-yl)amino)-1-oxopropan-2-yl)-4,4-difluoropiperidin-3-yl)pyridine 1-oxide]
16 | ≤ 10 | C[C@@H](C(=O)Nc1ccc(Oc2ccc(F)c(F)c2F)cn1)N1CCC(F)(F)[C@@H](c2cc[n+]([O-])cc2)C1 [Example 131, 4-((S)-4,4-difluoro-1-((S)-1-oxo-1-((5-(2,3,4-trifluorophenoxy)pyridin-2-yl)amino)propan-2-yl)piperidin-3-yl)pyridine 1-oxide]
17 | ≤ 10 | C[C@@H](C(=O)Nc1ccc(OCC2CC2)cn1)N1CCC(F)(F)[C@@H](c2c[nH]c(=O)cn2)C1 [Example 133, (S)—N-(5-(cyclopropylmethoxy)pyridin-2-yl)-2-((R)-4,4-difluoro-3-(5-oxo-4,5-dihydropyrazin-2-yl)piperidin-1-yl)propanamide]
18 | 10 to 100 | C[C@@H](C(=O)Nc1ccc(OCC2CC2)nn1)N1CCC(F)(F)[C@@H](c2c[nH]c(=O)cn2)C1 [Example 134, (S)-N-(6-(cyclopropylmethoxy)pyridazin-3-yl)-2-((R)-4,4-difluoro-3-(5-oxo-4,5-dihydropyrazin-2-yl)piperidin-1-yl)propanamide]
19 | 10 to 100 | C[C@@H](C(=O)Nc1ccc(F)cn1)N1CCC(F)(F)[C@@H](c2c[nH]c(=O)cn2)C1 [Example 135, (S)-2-((R)-4,4-difluoro-3-(5-oxo-4,5-dihydropyrazin-2-yl)piperidin-1-yl)-N-(5-fluoropyridin-2-yl)propanamide]
20 | 100 to 3160 | C[C@@H](C(=O)Nc1ccc(Cl)cn1)N1CCC(F)(F)[C@@H](c2c[nH]c(=O)cn2)C1 [Example 136, (S)-N-(5-chloropyridin-2-yl)-2-((R)-4,4-difluoro-3-(5-oxo-4,5-dihydropyrazin-2-yl)piperidin-1-yl)propanamide]
21 | 100 to 3160 | C[C@@H](C(=O)Nc1ccc(C2CC2)cn1)N1CCC(F)(F)[C@@H](c2c[nH]c(=O)cn2)C1 [Example 137, (S)-N-(5-cyclopropylpyridin-2-yl)-2-((R)-4,4-difluoro-3-(5-oxo-4,5-dihydropyrazin-2-yl)piperidin-1-yl)propanamide]
22 | 10 to 100 | C[C@@H](C(=O)Nc1ccc(OCC2CC2)cn1)N1CCC(F)(F)[C@@H](c2c[nH]c(=O)c(N)c2)C1 [Example 138, (S)-2-((S)-3-(5-amino-6-oxo-1,6-dihydropyridin-3-yl)-4,4-difluoropiperidin-1-yl)-N-(5-(cyclopropylmethoxy)pyridin-2-yl)propanamide]
23 | 10 to 100 | CC(C(=O)Nc1ccc(Oc2ccccc2)cn1)N1CCC(F)(F)C(c2c[nH]c(=O)c(N)c2)C1 (stereo not drawn) [Example 139, 2-(3-(5-amino-6-oxo-1,6-dihydropyridin-3-yl)-4,4-difluoropiperidin-1-yl)-N-(5-phenoxypyridin-2-yl)propanamide]
24 | 10 to 100 | C[C@@H](C(=O)Nc1ccc(OCC2CC2)nn1)N1CCC(F)(F)[C@@H](c2c[nH]c(=O)c(N)c2)C1 [Example 140, (S)-2-((S)-3-(5-amino-6-oxo-1,6-dihydropyridin-3-yl)-4,4-difluoropiperidin-1-yl)-N-(6-(cyclopropylmethoxy)pyridazin-3-yl)propanamide]
25 | 100 to 3160 | C[C@@H](C(=O)Nc1ccc(Cl)cn1)N1CCC(F)(F)[C@@H](c2c[nH]c(=O)c(N)c2)C1 [Example 141, (S)-2-((S)-3-(5-amino-6-oxo-1,6-dihydropyridin-3-yl)-4,4-difluoropiperidin-1-yl)-N-(5-chloropyridin-2-yl)propanamide]
26 | 100 to 3160 | C[C@@H](C(=O)Nc1ccc(F)cn1)N1CCC(F)(F)[C@@H](c2c[nH]c(=O)c(N)c2)C1 [Example 142, (S)-2-((S)-3-(5-amino-6-oxo-1,6-dihydropyridin-3-yl)-4,4-difluoropiperidin-1-yl)-N-(5-fluoropyridin-2-yl)propanamide]
27 | 10 to 100 | C[C@@H](C(=O)Nc1ccc(F)cn1)N1CCC(F)(F)[C@@H](c2cc(N)c(=O)[nH]n2)C1 [Example 143, (S)-2-((R)-3-(5-amino-6-oxo-1,6-dihydropyridazin-3-yl)-4,4-difluoropiperidin-1-yl)-N-(5-fluoropyridin-2-yl)propanamide]
28 | 10 to 100 | C[C@@H](C(=O)Nc1ccc(OCC2CC2)cn1)N1CCC(F)(F)[C@@H](c2ccc(=O)[nH]n2)C1 [Example 145, (S)—N-(5-(cyclopropylmethoxy)pyridin-2-yl)-2-((R)-4,4-difluoro-3-(6-oxo-1,6-dihydropyridazin-3-yl)piperidin-1-yl)propanamide]

Row | Compound | IC50 [nM]
29 | C[C@@H](C(=O)Nc1cnc(Oc2ccc(F)cc2F)cn1)N1CCC(F)(F)[C@@H](c2cc[n+]([O-])cc2)C1 [Example 132, 4-((S)-1-((S)-1-((5-(2,4-difluorophenoxy)pyrazin-2-yl)amino)-1-oxopropan-2-yl)-4,4-difluoropiperidin-3-yl)pyridine 1-oxide] | ≤ 10

same assay, conditions: […]; agonist Cortistatin-14 at 4×EC50; 30 min incubation at 37° C.; mean of a minimum of 2 experiments

Row | Compound | pIC50
30 | C[C@@H](C(=O)Nc1cnc(Oc2ccc(F)cc2F)cn1)N1CCC(F)(F)[C@@H](c2cc[n+]([O-])cc2)C1 [Example 132, 4-((S)-1-((S)-1-((5-(2,4-difluorophenoxy)pyrazin-2-yl)amino)-1-oxopropan-2-yl)-4,4-difluoropiperidin-3-yl)pyridine 1-oxide] | 8.6
